Source: US12357696B2, “Preserved etherified cyclodextrin derivatives containing liquid aqueous pharmaceutical composition” (Boehringer Ingelheim Vetmedica GmbH, priority 2013, dated 2025)

Tests used:
[1] = system: Zygosaccharomyces rouxii, Candida albicans and Aspergillus brasiliensis; assay: Efficacy of microbial preservation, Example 4, overall; assay type: cell-based; conditions: ascorbic acid 0.20-0.70 g/100 mL with sorbic acid 0.3 g/100 mL, pH 3.5
[2] = Solubility of pimobendan in cyclodextrin solutions (FIG. 1-3); assay type: physicochemical
Procedure: The last row of columns represents the reference control, which is the respective solution without preservative (“none”). […] FIG. 2 is a schematic diagram wherein the solubility of pimobendan is shown as a function of type and concentration of polymer, salt or complexation agent. In order to determine the degree of complexation, the effect of three different polymers, three different salts and one chelating agent on the solubility of pimobendan was tested. The pH of the solution was 4.5. Metolose is hydroxypropyl methylcellulose=HPMC=Hypromellose. Klucel ELF is hydroxypropyl cellulose=HPC. The number after the chemical name indicates the concentration of additive in % (m/V). FIG. 3 is a schematic diagram wherein the solubility of pimobendan is shown as a function of concentration of hydroxypropyl-ß-cyclodextrin and presence of sodium sorbate and hydroxypropyl methylcellulose (HPMC). Therefore, in FIG. 3 the effect of sodium sorbate and HPMC on the solubility of pimobendan was illustrated, and also the effect of concentration of hydroxypropyl-ß-cyclodextrin on the pimobendan solubility. Concentrations of sodium sorbate of 1.0% (m/V) and of HPMC of 0.1% (m/V) were used. The pH value was set to 4.5 using hydrochloric acid in all solutions.

[3] = assay type: physicochemical
Procedure: As already described in EP 0 439 030 and WO 2005/08467, pimobendan drug substance is insoluble in water: 1 g drug substance is soluble in more than 10,000 mL. At pH 7 the solubility of pimobendan is only about 0.1 mg per 100 mL.
The solubility of pimobendan in aqueous solutions is depends on the pH. […] However, the local tolerance and palatability as well as the chemical stability of such a formulation are not acceptable. This is due to the fact that the target dose would require a drug concentration in solution which can only be achieved by a pH of about pH 2.5 and lower. […] Accordingly, a pimobendan formulation comprising up to 1.5 mg/mL of pimobendan would need an increase in solubility at pH 7 by a factor of about 1000 to 1500, not achieved in prior art formulations for oral administration up to now.

[4] = cited from earlier work
[5] = system: E. coli, P. aeruginosa, S. aureus, C. albicans, A. brasiliensis; assay: Antimicrobial efficacy, Example 3, overall evaluation of Tables 6 and 7; assay type: cell-based; conditions: solutions of Table 4
Excerpt: The testing criteria applied are those for evaluation of antimicrobial activity for oral preparations according to Pharm. Eur. 7 (tests at 14 days and 28 days). The acceptance criteria of the Ph. Eur. 7, Method 5.1.3 “Efficacy of Antimicrobial Preservation” USP 34, and Method <51> Antimicrobial Effectiveness Testing are listed in the following Table 2.

O=C1O[C@H]([C@@H](O)CO)C(O)=C1O [ascorbic acid]
efficacy of preservation versus concentration of antioxidant [1]: increasing efficacy of preservation with increasing concentration of antioxidant

COc1ccc(-c2nc3ccc(C4=NNC(=O)CC4C)cc3[nH]2)cc1 (stereo not shown) [pimobendan, 4,5-dihydro-6-[2-(4-methoxyphenyl)-1H-benzimidazol-5-yl]-5-methyl-3(2H)-pyridazinone]
solubility of pimobendan as a function of pH value (FIG. 1) ([2]; 25% (m/V) cyclodextrin, pH 3.5, 4.5, 5.5, 7, 9): highest solubility of pimobendan occurs at pH=3.5
solubility of pimobendan as a function of preservative (FIG. 1) ([2]; 25% (m/V) cyclodextrin, versus reference control without preservative): highest pimobendan solubility is achieved with sodium sorbate
solubility of pimobendan as a function of cyclodextrin type (FIG. 1) ([2]; 25% (m/V) hydroxypropyl-ß- or hydroxypropyl-gamma-cyclodextrin): more soluble with hydroxypropyl-ß-cyclodextrin than hydroxypropyl-gamma-cyclodextrin
solubility of pimobendan in presence of HPMC (FIG. 3) ([2]; HPMC 0.1% (m/V), hydroxypropyl-ß-cyclodextrin, pH 4.5): significantly increases
solubility of pimobendan on addition of HPMC (FIG. 2) ([2]; pH 4.5): significant increase
solubility of pimobendan on addition of salts or disodium edetate (FIG. 2) ([2]; pH 4.5): does not significantly increase
solubility of pimobendan with both HPMC and sodium sorbate (FIG. 3) ([2]; sodium sorbate 1.0% (m/V) and HPMC 0.1% (m/V), pH 4.5): significantly increased
solubility of pimobendan in presence of sodium sorbate (FIG. 3) ([2]; sodium sorbate 1.0% (m/V), hydroxypropyl-ß-cyclodextrin, pH 4.5): significantly increases
solubility of pimobendan in aqueous solutions depending on pH [3]: significantly higher at pH 1 to 2.5 than at higher pH values
solubility of pimobendan ([4]; pH 7): about 0.1 mg per 100 mL
water in which 1 g drug substance is soluble ([4]; per 1 g drug substance, water): more than 10,000 mL

C/C=C/C=C/C(=O)O [sorbic acid]
antimicrobial efficacy (overall statement on Tables 6 and 7) [5]: good antimicrobial efficacy
